Measurements from PubChem BioAssay AID248 (DTP/NCI, 2004).
Where “and” joins values, the source holds several entries; their conditions need not be identical. Equal values may be shown once. Toxic doses and inconclusive results are not listed. Cut-off read from the data, not from the text of the source: active = T/C of 150% or more; inactive = T/C below 125%.

Tested on: L1210 leukemia ip in BDF1 mice, survival T/C
Test: NCI In Vivo Anticancer Drug Screen. Data for tumor model L1210 Leukemia (intraperitoneal) in B6D2F1 (BDF1) mice
Settings: endpoint: mean survival time, higher = longer survival
Procedure, shortened: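 Mice bearing the transplanted tumor received compound or vehicle. Survival of the treated group was divided by that of the vehicle-treated control group to give the ratio.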

[1] = dose: 100.0 mg/kg/injection, schedule: Q01DX009 (ip), vehicle: saline
[2] = dose: 100.0 mg/kg/injection, schedule: Q01DX009 (ip), vehicle: Klucel (hydroxypropylcellulose) (HPC)
[3] = dose: 200.0 mg/kg/injection, schedule: Q01DX009 (ip), vehicle: Klucel (hydroxypropylcellulose) (HPC)
[4] = dose: 400.0 mg/kg/injection, schedule: Q01DX009 (ip), vehicle: Klucel (hydroxypropylcellulose) (HPC)
[5] = dose: 100.0 mg/kg/injection, schedule: Q01DX001 (ip), vehicle: carboxymethylcellulose (CMC)
[6] = dose: 200.0 mg/kg/injection, schedule: Q01DX001 (ip), vehicle: carboxymethylcellulose (CMC)
[7] = dose: 400.0 mg/kg/injection, schedule: Q01DX001 (ip), vehicle: carboxymethylcellulose (CMC)
[8] = dose: 50.0 mg/kg/injection, schedule: Q01DX001 (ip), vehicle: carboxymethylcellulose (CMC)
[9] = dose: 100.0 mg/kg/injection, schedule: Q01DX001 (ip), vehicle: saline
[10] = dose: 200.0 mg/kg/injection, schedule: Q01DX001 (ip), vehicle: saline
[11] = dose: 400.0 mg/kg/injection, schedule: Q01DX001 (ip), vehicle: saline
[12] = dose: 100.0 mg/kg/injection, schedule: Q04DX003 (ip), vehicle: Klucel (hydroxypropylcellulose) (HPC)
[13] = dose: 200.0 mg/kg/injection, schedule: Q04DX003 (ip), vehicle: Klucel (hydroxypropylcellulose) (HPC)
[14] = dose: 50.0 mg/kg/injection, schedule: Q04DX003 (ip), vehicle: Klucel (hydroxypropylcellulose) (HPC)

Measured: T/C

Clc1ccc2[nH]ncc2c1
inactive: dose: 100.0 mg/kg/injection, schedule: Q04DX002 (ip), vehicle: Klucel (hydroxypropylcellulose) (HPC) 88 % of control | dose: 200.0 mg/kg/injection, schedule: Q04DX002 (ip), vehicle: Klucel (hydroxypropylcellulose) (HPC) 98 % of control | dose: 400.0 mg/kg/injection, schedule: Q04DX002 (ip), vehicle: Klucel (hydroxypropylcellulose) (HPC) 98 % of control

CC(O)C(O)C(N)CC=O (configuration not stated)
inactive: dose: 5.0 mg/kg/injection, schedule: Q01DX001 (ip), vehicle: saline 101 % of control | dose: 10.0 mg/kg/injection, schedule: Q01DX001 (ip), vehicle: saline 113 % of control | dose: 20.0 mg/kg/injection, schedule: Q01DX001 (ip), vehicle: saline 97 % of control | dose: 40.0 mg/kg/injection, schedule: Q01DX001 (ip), vehicle: saline 98 % of control | [1] 102 % of control | dose: 200.0 mg/kg/injection, schedule: Q01DX009 (ip), vehicle: saline 97 % of control | dose: 400.0 mg/kg/injection, schedule: Q01DX009 (ip), vehicle: saline 97 % of control

CCOc1ccc(NC(=O)C(Br)C(Br)c2ccccc2)cc1 (configuration not stated)
inactive: [2] 100 % of control | [3] 96 % of control | [4] 91 % of control

CC1(C)Oc2c(ccc(O)c2CN2CCOCC2)C2=C1CCCC2
inactive: [5] 93 % of control | [6] 96 % of control | [7] 91 % of control

OCc1ccc(CO)cc1
inactive: dose: 100.0 mg/kg/injection, schedule: Q01DX009 (ip), vehicle: saline sonified 100 % of control | dose: 200.0 mg/kg/injection, schedule: Q01DX009 (ip), vehicle: saline sonified 94 % of control | dose: 400.0 mg/kg/injection, schedule: Q01DX009 (ip), vehicle: saline sonified 103 % of control

CC12CCC(C1)C(C)(C)C2OC(=O)c1ccccc1C(=O)O (configuration not stated)
inactive: [8] 103 % of control | [5] 113 % of control | [6] 102 % of control | [7] 103 % of control

COc1ccccc1/C=N\NC(=O)c1ccco1
inactive: [5] 95 % of control | [6] 93 % of control | [7] 95 % of control

c1ccc(N=NC2(c3ccccc3)CCC(c3ccccc3)=NN2c2ccccc2)cc1 (configuration not stated)
inactive: dose: 100.0 mg/kg/injection, schedule: Q04DX003 (ip), vehicle: saline with Tween-80 100 % of control | dose: 200.0 mg/kg/injection, schedule: Q04DX003 (ip), vehicle: saline with Tween-80 89 % of control | dose: 400.0 mg/kg/injection, schedule: Q04DX003 (ip), vehicle: saline with Tween-80 93 % of control

COc1ccc([N+](=O)[O-])cc1NC(=O)Nc1ccc(F)c([N+](=O)[O-])c1
inactive: [2] 98 % of control | [3] 95 % of control | [4] 95 % of control

O=S(=O)(Nc1ncccn1)c1ccc(N=Nc2ccc(O)c3ncccc23)cc1
inactive: [9] 100 % of control | [10] 103 % of control | [11] 103 % of control

O=C(O)c1cc(Br)sc1Br
inactive: [5] 101 % of control | [6] 95 % of control | [7] 95 % of control

CCN(CC)CCCCN(C)c1ccccc1
inactive: dose: 12.5 mg/kg/injection, schedule: Q01DX009 (ip), vehicle: saline with Tween-80 89 % of control | dose: 12.5 mg/kg/injection, schedule: Q04DX003 (ip), vehicle: acetone 93 % of control | dose: 25.0 mg/kg/injection, schedule: Q01DX009 (ip), vehicle: saline with Tween-80 97 % of control | dose: 25.0 mg/kg/injection, schedule: Q04DX003 (ip), vehicle: acetone 89 % of control | dose: 50.0 mg/kg/injection, schedule: Q01DX009 (ip), vehicle: saline with Tween-80 97 % of control | dose: 50.0 mg/kg/injection, schedule: Q04DX003 (ip), vehicle: acetone 98 % of control

OC(CF)CF
inactive: dose: 25.0 mg/kg/injection, schedule: Q01DX009 (ip), vehicle: saline 115 % of control | [1] 103 % of control

N#CC1CN2c3ccc4ccccc4c3CCC2C1=O (configuration not stated)
inactive: dose: 50.0 mg/kg/injection, schedule: Q01DX001 (ip), vehicle: saline 106 % of control | [9] 104 % of control | [10] 104 % of control

O=C(NCCCl)NC1C(O)OC(CO)C(O)C1O (configuration not stated)
inactive: dose: 25.0 mg/kg/injection, schedule: Q01DX009 (ip), vehicle: water 95 % of control | dose: 50.0 mg/kg/injection, schedule: Q01DX009 (ip), vehicle: water 110 % of control | [9] 97 % of control | dose: 100.0 mg/kg/injection, schedule: Q01DX009 (ip), vehicle: water 105 % of control | [10] 98 % of control | dose: 200.0 mg/kg/injection, schedule: Q01DX009 (ip), vehicle: water 100 % of control | [11] 96 % of control | dose: 400.0 mg/kg/injection, schedule: Q01DX009 (ip), vehicle: water 97 % of control

COc1cc(C)c(C)cc1C(C)C(C)C(=O)O (configuration not stated)
inactive: [12] 97 % of control | [13] 98 % of control | dose: 400.0 mg/kg/injection, schedule: Q04DX003 (ip), vehicle: Klucel (hydroxypropylcellulose) (HPC) 98 % of control

CCOC(=O)C(C)Oc1cccc(O)c1[N+](=O)[O-] (configuration not stated)
inactive: dose: 100.0 mg/kg/injection, schedule: Q01DX001 (ip), vehicle: saline with Tween-80 95 % of control | dose: 200.0 mg/kg/injection, schedule: Q01DX001 (ip), vehicle: saline with Tween-80 97 % of control | dose: 400.0 mg/kg/injection, schedule: Q01DX001 (ip), vehicle: saline with Tween-80 90 % of control

CN(C(=O)CCl)c1ccccc1
inactive: dose: 12.5 mg/kg/injection, schedule: Q01DX009 (ip), vehicle: Klucel (hydroxypropylcellulose) (HPC) 92 % of control | dose: 25.0 mg/kg/injection, schedule: Q01DX009 (ip), vehicle: Klucel (hydroxypropylcellulose) (HPC) 98 % of control | dose: 25.0 mg/kg/injection, schedule: Q04DX003 (ip), vehicle: Klucel (hydroxypropylcellulose) (HPC) 104 % of control | dose: 50.0 mg/kg/injection, schedule: Q01DX009 (ip), vehicle: Klucel (hydroxypropylcellulose) (HPC) 93 % of control | [14] 98 % of control | [12] 88 % of control

COc1ncnc(Cl)c1[N+](=O)[O-]
inactive: [14] 92 % of control | [12] 92 % of control and 86 % of control | [13] 97 % of control and 91 % of control

C=CCN(C=O)CC=C
inactive: [1] 101 % of control

CCCCO[Si](C)(C)CCl
inactive: [8] 101 % of control | [5] 101 % of control | [6] 106 % of control | [7] 97 % of control
